Earlier results on two compounds are cited in patent US7713983B2 (priority 2003, dated 2010).

The structures appear in SMILES notation.

The test system of series [1] is neuropathic pain. Particulars: in vivo.
Series [2] addresses NaV1.3 (Homo sapiens, UniProt Q9NY46). The following applies: read-out: TTX IC50.

NaV1.3, sequence (Q9NY46 whole entry, looked up): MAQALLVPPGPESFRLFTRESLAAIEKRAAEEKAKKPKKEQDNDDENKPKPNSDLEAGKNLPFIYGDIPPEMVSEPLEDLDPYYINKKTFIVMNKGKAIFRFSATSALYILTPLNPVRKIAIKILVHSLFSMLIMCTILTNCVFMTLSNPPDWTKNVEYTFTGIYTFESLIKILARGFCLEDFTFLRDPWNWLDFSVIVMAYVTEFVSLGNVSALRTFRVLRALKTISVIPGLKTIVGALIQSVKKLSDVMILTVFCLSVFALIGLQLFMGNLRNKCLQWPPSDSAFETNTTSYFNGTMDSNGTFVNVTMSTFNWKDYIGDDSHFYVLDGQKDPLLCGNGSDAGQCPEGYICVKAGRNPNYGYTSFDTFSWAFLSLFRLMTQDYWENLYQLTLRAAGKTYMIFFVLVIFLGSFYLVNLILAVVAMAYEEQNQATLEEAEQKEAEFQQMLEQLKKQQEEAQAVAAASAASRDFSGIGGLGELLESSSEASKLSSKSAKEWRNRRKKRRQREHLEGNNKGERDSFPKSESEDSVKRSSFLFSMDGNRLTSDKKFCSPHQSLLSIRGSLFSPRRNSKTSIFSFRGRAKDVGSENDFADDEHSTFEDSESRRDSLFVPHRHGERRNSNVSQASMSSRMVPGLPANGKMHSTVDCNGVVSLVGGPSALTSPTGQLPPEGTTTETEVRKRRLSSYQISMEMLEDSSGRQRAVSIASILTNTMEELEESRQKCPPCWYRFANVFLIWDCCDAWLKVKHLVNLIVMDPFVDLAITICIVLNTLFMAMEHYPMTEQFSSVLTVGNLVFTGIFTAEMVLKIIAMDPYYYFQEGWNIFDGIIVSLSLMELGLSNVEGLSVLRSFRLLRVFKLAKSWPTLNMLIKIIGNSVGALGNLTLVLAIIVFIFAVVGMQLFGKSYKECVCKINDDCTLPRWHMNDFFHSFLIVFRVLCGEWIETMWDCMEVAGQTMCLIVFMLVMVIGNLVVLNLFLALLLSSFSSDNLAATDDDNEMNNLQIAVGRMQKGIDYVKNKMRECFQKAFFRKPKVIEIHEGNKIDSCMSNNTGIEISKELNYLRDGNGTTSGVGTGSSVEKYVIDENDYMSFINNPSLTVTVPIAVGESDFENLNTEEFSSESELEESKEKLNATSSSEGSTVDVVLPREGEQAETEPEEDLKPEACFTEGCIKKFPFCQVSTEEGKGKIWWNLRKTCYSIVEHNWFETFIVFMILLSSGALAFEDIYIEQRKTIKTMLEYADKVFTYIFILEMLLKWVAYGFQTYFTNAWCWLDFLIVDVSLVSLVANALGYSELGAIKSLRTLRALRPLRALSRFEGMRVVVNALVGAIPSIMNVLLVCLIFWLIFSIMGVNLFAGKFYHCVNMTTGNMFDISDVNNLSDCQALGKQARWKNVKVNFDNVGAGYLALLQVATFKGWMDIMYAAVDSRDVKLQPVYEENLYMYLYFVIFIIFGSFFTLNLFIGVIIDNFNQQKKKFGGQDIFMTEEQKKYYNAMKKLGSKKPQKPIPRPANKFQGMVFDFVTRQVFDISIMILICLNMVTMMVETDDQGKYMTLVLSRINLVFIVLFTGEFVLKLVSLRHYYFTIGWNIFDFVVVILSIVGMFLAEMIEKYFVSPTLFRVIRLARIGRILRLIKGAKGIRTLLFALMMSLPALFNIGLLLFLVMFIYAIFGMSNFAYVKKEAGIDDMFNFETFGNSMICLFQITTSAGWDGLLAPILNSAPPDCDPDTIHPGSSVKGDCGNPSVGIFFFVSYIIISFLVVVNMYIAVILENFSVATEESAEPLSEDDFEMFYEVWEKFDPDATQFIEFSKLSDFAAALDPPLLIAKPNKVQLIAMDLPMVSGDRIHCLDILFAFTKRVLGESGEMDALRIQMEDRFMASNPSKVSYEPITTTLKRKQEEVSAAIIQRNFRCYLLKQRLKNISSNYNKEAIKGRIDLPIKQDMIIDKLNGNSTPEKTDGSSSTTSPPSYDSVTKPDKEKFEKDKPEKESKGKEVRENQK

As for `NCC1(CC(=O)O)CCCCC1` [Gabapentin], in series [1], the “share of patients in whom it works” value was 60%. On to `NC1=N[C@H](O)[C@H]2[C@H]3O[C@]4(O)O[C@@H]([C@@H](O)[C@@]2(N1)[C@@H]4O)[C@]3(O)CO` [TTX, tetrodotoxin], for which the IC50 in series [2] was 15 nM.
